From US12240862B2, “Inhibitors of peptidylarginine deiminases” (Gilead Sciences, Inc., priority 2020, dated 2025)
pIC50: −log10 of the molar value.

biological target: T1, human PAD4 (Homo sapiens, UniProt Q9UM07); test: In vitro PAD4 BAEE biochemical assay; details: human PAD4, BAEE substrate; 5 nM PAD4, 2 mM calcium chloride, 3 mM BAEE; geometric mean of multiple experiments
T1 construct: human PAD4 (NM_012387), A2P663, was PCR amplified; His-SUMO (N, cleaved yes); made in house; host or cells: E. coli BL21(DE3)
T1 sequence (Q9UM07 2-663): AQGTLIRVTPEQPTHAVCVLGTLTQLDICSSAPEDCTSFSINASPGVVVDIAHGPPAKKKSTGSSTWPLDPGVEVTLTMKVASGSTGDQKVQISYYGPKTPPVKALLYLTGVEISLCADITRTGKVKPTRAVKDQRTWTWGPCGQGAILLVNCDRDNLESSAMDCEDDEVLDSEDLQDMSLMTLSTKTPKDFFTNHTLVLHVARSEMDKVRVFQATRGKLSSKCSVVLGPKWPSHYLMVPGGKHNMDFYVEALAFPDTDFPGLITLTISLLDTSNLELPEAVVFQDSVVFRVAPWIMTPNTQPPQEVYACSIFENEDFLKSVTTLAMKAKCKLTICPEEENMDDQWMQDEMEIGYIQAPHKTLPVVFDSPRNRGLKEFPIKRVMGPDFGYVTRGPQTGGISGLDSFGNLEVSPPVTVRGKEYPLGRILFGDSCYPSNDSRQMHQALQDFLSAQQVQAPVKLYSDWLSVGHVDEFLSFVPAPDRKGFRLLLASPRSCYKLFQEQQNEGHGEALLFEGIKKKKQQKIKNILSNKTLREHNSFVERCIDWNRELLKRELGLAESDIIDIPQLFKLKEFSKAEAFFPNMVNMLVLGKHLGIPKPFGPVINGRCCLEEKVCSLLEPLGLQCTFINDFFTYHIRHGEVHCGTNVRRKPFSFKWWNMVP
Method in brief: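 Ammonia generated from BAEE serves as the readout, measured by o-phthalaldehyde after EDTA termination. Final conditions: 5 nM human PAD4 (SUMO tag cleaved), 2 mM CaCl2, 3 mM BAEE, pH 7.6 MOPS buffer, 25 °C for 2 h following a 30-min compound preincubation.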

First: COc1cc(C(=O)N2[C@H]3CC[C@@H]2[C@H](N)C3)cc2nc(-c3cc4ccc([C@@H](C)NC(=O)Nc5ccccc5)nc4n3CC3CC3)c(C)n12 [Example 239, 1-[(1~{R})-1-[2-[7-[(1~{R},2~{R},4~{S})-2-amino-7-azabicyclo[2.2.1]heptane-7-carbonyl]-5-methoxy-3-methylimidazo [1,2-a]pyridin-2-yl]-1-(cyclopropylmethyl)pyrrolo [2,3-b]pyridin-6-yl]ethyl]-3-phenylurea]
Second: COc1cc(C(=O)N2[C@H]3CC[C@@H]2[C@H](N)C3)cc2nc(-c3cc4ccc([C@@H](C)NC(=O)N(C)c5ccccc5)nc4n3CC3CC3)c(C)n12 [Example 242, 3-[(1~{R})-1-[2-[7-[(1~{R},2~{R},4~{S})-2-amino-7-azabicyclo[2.2.1]heptane-7-carbonyl]-5-methoxy-3-methylimidazo [1,2-a]pyridin-2-yl]-1-(cyclopropylmethyl)pyrrolo [2,3-b]pyridin-6-yl]ethyl]-1-methyl-1-phenylurea]
The pIC50 of the first is 0.47 log units higher: 7.09 for the first, 6.62 for the second. The first is the more potent here.

`COc1cc(C(=O)N2[C@H]3CC[C@@H]2[C@H](N)C3)cc2nc(-c3cc4ccc([C@@H](C)NC(=O)N(C)Cc5ccccc5)nc4n3CC3CC3)c(C)n12` [Example 240, 3-[(1~{R})-1-[2-[7-[(1~{R},2~{R},4~{S})-2-amino-7-azabicyclo[2.2.1]heptane-7-carbonyl]-5-methoxy-3-methylimidazo [1,2-a]pyridin-2-yl]-1-(cyclopropylmethyl)pyrrolo [2,3-b]pyridin-6-yl]ethyl]-1-benzyl-1-methylurea] and `COc1cc(C(=O)N2[C@H]3CC[C@@H]2[C@H](N)C3)cc2nc(-c3cc4ccc([C@@H](C)NC(=O)OC(C)C)nc4n3CC3CC3)c(C)n12` [Example 254, propan-2-yl~{N}-[(1~{R})-1-[2-[7-[(1~{R}, 2~{R},4~{S})-2-amino-7-azabicyclo[2.2.1]heptane-7-carbonyl]-5-methoxy-3-methylimidazo [1,2-a]pyridin-2-yl]-1-(cyclopropylmethyl)pyrrolo [2,3-b]pyridin-6-yl]ethyl] carbamate] are within 0.2 log units of each other in pIC50: 7.07 for the first, 6.96 for the second.

`COc1cc(C(=O)N2[C@H]3CC[C@@H]2[C@H](N)C3)cc2nc(-c3cc4ccc([C@@H](C)NC(=O)N5CCOCC5)nc4n3CC3CC3)c(C)n12` [Example 241, ~{N}-[(1~{R})-1-[2-[7-[(1~{R},2~{R},4~{S})-2-amino-7-azabicyclo[2.2.1]heptane-7-carbonyl]-5-methoxy-3-methylimidazo [1,2-a]pyridin-2-yl]-1-(cyclopropylmethyl)pyrrolo [2,3-b]pyridin-6-yl]ethyl] morpholine-4-carboxamide] and `COc1cc(C(=O)N2[C@H]3CC[C@@H]2[C@H](N)C3)cc2nc(-c3cc4ccc([C@@H](C)NC(=O)N5CCC5)nc4n3CC3CC3)c(C)n12` [Example 247] are within 0.2 log units of each other in pIC50: 7.26 for the first, 7.15 for the second.

`COc1cc(C(=O)N2[C@H]3CC[C@@H]2[C@H](N)C3)cc2nc(-c3cc4ccc([C@@H](C)NC(=O)N5CCC(F)(F)C5)nc4n3CC3CC3)c(C)n12` [Example 243, ~{N}-[(1~{R})-1-[2-[7-[(1~{R},2~{R},4~{S})-2-amino-7-azabicyclo[2.2.1]heptane-7-carbonyl]-5-methoxy-3-methylimidazo [1,2-a]pyridin-2-yl]-1-(cyclopropylmethyl)pyrrolo [2,3-b]pyridin-6-yl]ethyl]-3,3-difluoropyrrolidine-1-carboxamide] and `COc1cc(C(=O)N2[C@H]3CC[C@@H]2[C@H](N)C3)cc2nc(-c3cc4ccc([C@@H](C)NC(=O)N5CC[C@H](F)C5)nc4n3CC3CC3)c(C)n12` [Example 248, (3~{S})-~{N}-[(1~{R})-1-[2-[7-[(1~{R},2~{R},4~{S})-2-amino-7-azabicyclo[2.2.1]heptane-7-carbonyl]-5-methoxy-3-methylimidazo [1,2-a]pyridin-2-yl]-1-(cyclopropylmethyl)pyrrolo [2,3-b]pyridin-6-yl]ethyl]-3-fluoropyrrolidine-1-carboxamide] are within 0.2 log units of each other in pIC50: 7.09 for the first, 7.25 for the second.

First: COc1cc(C(=O)N2[C@H]3CC[C@@H]2[C@H](N)C3)cc2nc(-c3cc4ccc([C@@H](C)NC(=O)NC(C)(C)C)nc4n3CC3CC3)c(C)n12 [Example 244, 1-[(1~{R})-1-[2-[7-[(1~{R},2~{R},4~{S})-2-amino-7-azabicyclo[2.2.1]heptane-7-carbonyl]-5-methoxy-3-methylimidazo [1,2-a]pyridin-2-yl]-1-(cyclopropylmethyl)pyrrolo [2,3-b]pyridin-6-yl]ethyl]-3-~{tert}-butylurea]
Second: COc1cc(C(=O)N2[C@H]3CC[C@@H]2[C@H](N)C3)cc2nc(-c3cc4ccc([C@@H](C)NC(=O)N5CCCC5)nc4n3CC3CC3)c(C)n12 [Example 251, N—((R)-1-(2-(7-((1R,2R,4S)-2-amino-7-azabicyclo[2.2.1]heptane-7-carbonyl)-5-methoxy-3-methylimidazo[1,2-a]pyridin-2-yl)-1-(cyclopropylmethyl)-1H-pyrrolo[2,3-b]pyridin-6-yl)ethyl)pyrrolidine-1-carboxamide]
The pIC50 of the first is 0.25 log units lower: 7.05 for the first, 7.30 for the second.

`COc1cc(C(=O)N2[C@H]3CC[C@@H]2[C@H](N)C3)cc2nc(-c3cc4ccc([C@@H](C)NC(=O)N5C[C@@H](F)[C@@H](F)C5)nc4n3CC3CC3)c(C)n12` [Example 245, (3~{R},4~{S})-~{N}-[(1~{R})-1-[2-[7-[(1~{R},2~{R},4~{S})-2-amino-7-azabicyclo [2.2.1]heptane-7-carbonyl]-5-methoxy-3-methylimidazo [1,2-a]pyridin-2-yl]-1-(cyclopropylmethyl)pyrrolo [2,3-b]pyridin-6-yl]ethyl]-3,4-difluoropyrrolidine-1-carboxamide] and `COc1cc(C(=O)N2[C@H]3CC[C@@H]2[C@H](N)C3)cc2nc(-c3cc4ccc([C@@H](C)NC(=O)N5CC6CC6C5)nc4n3CC3CC3)c(C)n12` (some centres unmarked) [Example 246, ~{N}-[(1~{R})-1-[2-[7-[(1~{R},2~{R},4~{S})-2-amino-7-azabicyclo[2.2.1]heptane-7-carbonyl]-5-methoxy-3-methylimidazo [1,2-a]pyridin-2-yl]-1-(cyclopropylmethyl)pyrrolo [2,3-b]pyridin-6-yl]ethyl]-3-azabicyclo[3.1.0]hexane-3-carboxamide] are within 0.2 log units of each other in pIC50: 7.21 for the first, 7.09 for the second.

Compared with `COc1cc(C(=O)N2[C@H]3CC[C@@H]2[C@H](N)C3)cc2nc(-c3cc4ccc([C@@H](C)NC(=O)N5CCCC5)nc4n3CC3CC3)c(C3CC3)n12` [Example 249, ~{N}-[(1~{R})-1-[2-[7-[(1~{R},2~{R},4~{S})-2-amino-7-azabicyclo[2.2.1]heptane-7-carbonyl]-3-cyclopropyl-5-methoxyimidazo[1,2-a]pyridin-2-yl]-1-(cyclopropylmethyl)pyrrolo [2,3-b]pyridin-6-yl]ethyl] pyrrolidine-1-carboxamide], `COc1cc(C(=O)N2C[C@H]3CC[C@@H]2[C@@H]3N)cc2nc(-c3cc4ccc([C@@H](C)NC(=O)N5CCCC5)nc4n3CC3CC3)c(C)n12` [Example 250, N-((R)-1-(2-(7-((1R,4R,7R)-7-amino-2-azabicyclo[2.2.1]heptane-2-carbonyl)-5-methoxy-3-methylimidazo[1,2-a]pyridin-2-yl)-1-(cyclopropylmethyl)-1H-pyrrolo[2,3-b]pyridin-6-yl)ethyl) pyrrolidine-1-carboxamide] is 0.47 log units lower in pIC50: 7.18 for the first, 6.71 for the second. The first is the more potent here.

First: COc1cc(C(=O)N2CCC[C@@H](N)C2)cc2nc(-c3cc4ccc([C@@H](C)NC(=O)N5CCCC5)nc4n3CC3CC3)c(C)n12 [Example 252, ~{N}-[(1~{R})-1-[2-[7-[(3~{R})-3-aminopiperidine-1-carbonyl]-5-methoxy-3-methylimidazo [1,2-a]pyridin-2-yl]-1-(cyclopropylmethyl)pyrrolo [2,3-b]pyridin-6-yl]ethyl] pyrrolidine-1-carboxamide]
Second: COc1cc(C(=O)N2CCC[C@@H](N)C2)cc2nc(-c3cc4ccc([C@@H](C)NC(=O)OC5CCCC5)nc4n3CC3CC3)c(C)n12 [Example 255, cyclopentyl~{N}-[(1~{R})-1-[2-[7-[(3~{R})-3-aminopiperidine-1-carbonyl]-5-methoxy-3-methylimidazo[1,2-a]pyridin-2-yl]-1-(cyclopropylmethyl)pyrrolo [2,3-b]pyridin-6-yl]ethyl] carbamate]
The pIC50 of the first is 0.47 log units higher: 7.01 for the first, 6.54 for the second.

First: COc1cc(C(=O)N2CCC[C@@H](N)C2)cc2nc(-c3cc4ccc([C@@H](C)NC(=O)N(C)C)nc4n3CC3CC3)c(C)n12 [Example 253, 3-[(1~{R})-1-[2-[7-[(3~{R})-3-aminopiperidine-1-carbonyl]-5-methoxy-3-methylimidazo[1,2-a]pyridin-2-yl]-1-(cyclopropylmethyl)pyrrolo [2,3-b]pyridin-6-yl]ethyl]-1,1-dimethylurea]
Second: COC(=O)N[C@H](C)c1ccc2cc(-c3nc4cc(C(=O)N5CCC[C@@H](N)C5)cc(OC)n4c3C)n(CC3CC3)c2n1 [Example 258]
The pIC50 of the first is 0.22 log units higher: 6.87 for the first, 6.65 for the second.

First: COc1cc(C(=O)N2CCC[C@@H](N)C2)cc2nc(-c3cc4ccc([C@@H](C)NC(=O)OCC(C)(C)C)nc4n3CC3CC3)c(C)n12 [Example 256, 2,2-dimethylpropyl~{N}-[(1~{R})-1-[2-[7-[(3~ {R})-3-aminopiperidine-1-carbonyl]-5-methoxy-3-methylimidazo[1,2-a]pyridin-2-yl]-1-(cyclopropylmethyl)pyrrolo [2,3-b]pyridin-6-yl]ethyl] carbamate]
Second: COc1cc(C(=O)N2CCC[C@@H](N)C2)cc2nc(-c3cc4ccc([C@@H](C)NC(=O)OC(C)(C)C)nc4n3CC3CC3)c(C)n12 [Example 257, ~{tert}-butyl~{N}-[(1~{R})-1-[2-[7-[(3~{R})-3-aminopiperidine-1-carbonyl]-5-methoxy-3-methylimidazo[1,2-a]pyridin-2-yl]-1-(cyclopropylmethyl)pyrrolo [2,3-b]pyridin-6-yl]ethyl] carbamate]
The pIC50 of the first is 0.37 log units lower: 6.31 for the first, 6.68 for the second.
